Measured values as given in patent US4737519A, “Substituted naphthalenes, indoles, benzofurans, and benzothiophenes as lipoxygenase inhibitors” (The Upjohn Company, priority 1986, dated 1988).

Key:
mucous secretion = test: canine tracheal mucous secretion (hillock count); assay type: in vivo, mongrel dogs; details: 1.0 mg in the CTA
Procedure: Mongrel dogs (weight 18-35 kg) were anesthetized with a mixture of chloralose (100 mg/kg) and urethane (500 mg/kg) via intravenous injection. The animals were secured to a surgery table, ventral side up, and the neck and inner right hind limb were shaved. A ventral midline incision was made in the neck using a Bovie CSVII electrosurgical unit, starting from the papillae (interramal) to the clavicle thus exposing the trachea. An endotracheal tube was secured into the lower trachea. The animals were then connected via the endotracheal tube to a Harvard respirator (Model 607A) that delivered room air at a constant tidal volume and frequency. Two polyethylene catheters were connected to the endotracheal tube, and one was connected to a medical gas analyzer (Beckman, Model LB-2) that continuously measured the carbon dioxide (CO2) content of the expired air for determination of end tidal CO2. The other was connected to a pressure transducer (Statham, Model PMI 131TC+2.5-350) for the measurement of airway press ure.
A second incision made in the inner right hind limb to expose the femoral artery and vein was made for the catheterization of these large vessels. A polyethylene catheter was tied into the artery and connected to a pressure transducer (Statham, Model P231D) for the measurement of blood pressure. This catheter also allowed for samples of arterial blood to be collected for measurements of blood gas tension using a blood gas analyser (Corning, Model 175). Another polyethylene catheter was tied into the femoral vein which was used for injecting additional anesthetic and paralyzing drugs. Gallamine triethiodide (20-40 mg) was used to paralyze the respiratory muscles and a single injection of sodium bicarbonate 7.5% (0.5 mg/kg) in conjunction with a continuous i.v. drip of 5% dextrose in 0.9% saline helped to maintain fluid balance. All physiological measurements were recorded and monitored on a polygraph (Grass instruments, Model 7D). Once the femoral cutdown was completed, surgery on the neck region resumed. The carotid artery was exposed and the "knuckle" (a portion of the carotid which bisects to supply blood flow to the trachea and neck muscles) was located. A small polyethylene catheter was then inserted into the muscular branch of the cranial thyroid artery (CTA). This allowed for close arterial injection of experimental agents. The strap muscles were removed and the mucosal surface of the trachea exposed by cutting along the anterior midline of the upper two-thirds of the extrathoracic trachea and pulling the cut edges widely apart. The exposed mucosa was checked for proper canulation by blanching and appropriate adjustments of the canula into the CTA were made until blanching was achieved.
(§1) Isometric tension measurements of the trachealis muscle were recorded by suturing a rigid, plastic bar to the (15) cartilaginous rings of the cut edges of the trachea, and connecting one side to a fixed restraint and the contralateral side to a force displacement transducer (Grass, Model FT 03C). An initial tension of 25-30 g/cm of trachea was applied to the muscle, and it was allowed to stabilize for 45 min. An initial zero tension point was determined before agonists were injected into the CTA, and the zero was readjusted after agonist injections.
To visualize secretions coming from the submucosal gland duct openings of the trachea, powdered tantalum, an inert metal (2-5 microns in size) was sprayed on the trachea until it formed a uniform layer over the mucosal surface. The tantalum itself did nothing to normal secretion, but prevented the normal ciliary dispersion of secretions from the gland duct openings; these secretions, therefore, caused elevations ("hillocks") in the tantalum layer. The number of hillocks formed in a 1.2 cm^2 field, 1-2 cm from the larynx, were counted and their images were recorded with a video camera (Hitachi CCTV, Model HV-17TU) mounted on a dissecting microscrope (Zeiss Ompi-1) with a beam splitter. […]

human airways = details: in vitro; cited from earlier work
trachealis muscle = test: isometric tension of the trachealis muscle in dogs; assay type: in vivo, mongrel dogs; details: 1.0 mg in the CTA
Procedure: as §1
When drug activity was assessed with arachidonic acid induced secretion, the animals were pretreated with indomethacin (Indo) (5 mg/kg) for at least 30 minutes. Before any drugs were given, however, the appropriate controls for arachidonate and indomethacin were run. The standard procedure for this was to determine the effect of (1) arachidonate alone, (2) indomethacin alone, and (3) indomethacin/arachidonate combination on normal baseline secretion. Once these control values were acquired, the drug was given. An experimental drug given in the presence of the indomethacin/arachidonate combination helps to characterize that portion of the response due to lipoxygenase products. […] Hillocks were counted for 2-3 minutes immediately after the arachidonate was given.

canine tracheas = details: in vivo; cited from earlier work
mucus release = details: in vivo in the cat; cited from earlier work

Compound | effect on mucus secretion (mucous secretion) | release of mucus from human airways (human airways) | effect on the trachealis muscle (trachealis muscle) | release of mucus from canine tracheas (canine tracheas) | stimulating mucus release (mucus release)
CCCCC/C=C\C/C=C\C/C=C\C/C=C\CCCC(=O)O [arachidonate, arachidonic acid] | stimulates mucus secretion | release mucus from human airway | slight stimulation followed by relaxation of the trachealis muscle |  | 
CCCCC/C=C\C\C=C/C=C/C=C/[C@@H](SC[C@H](NC(=O)CC[C@H](N)C(=O)O)C(=O)NCC(=O)O)[C@@H](O)CCCC(=O)O [LTC4, leukotriene C4] |  | increase the release of mucus |  | increase the release of mucus | effective in stimulating mucus release in vivo in the cat
